From patent US20150080438A1, “6,7-Dihydro-5H-benzo[7]annulene derivatives, processes for their preparation, pharmaceutical products comprising them and their use for preparing medicaments” (Bayer Intellectual Property GmbH, priority 2011, published 2015)
pIC50: −log10 of the molar value.

Molecular target: T1, oestrogen receptor (ER) (Homo sapiens, UniProt P03372)
T1 construct: These MVLN cells express, along with the functional oestrogen receptor (ER), a reporter construct; endogenous in cells; host or cells: MVLN cells (MCF7 derivative with ER-responsive luciferase reporter)
T1 sequence (P03372 1-595): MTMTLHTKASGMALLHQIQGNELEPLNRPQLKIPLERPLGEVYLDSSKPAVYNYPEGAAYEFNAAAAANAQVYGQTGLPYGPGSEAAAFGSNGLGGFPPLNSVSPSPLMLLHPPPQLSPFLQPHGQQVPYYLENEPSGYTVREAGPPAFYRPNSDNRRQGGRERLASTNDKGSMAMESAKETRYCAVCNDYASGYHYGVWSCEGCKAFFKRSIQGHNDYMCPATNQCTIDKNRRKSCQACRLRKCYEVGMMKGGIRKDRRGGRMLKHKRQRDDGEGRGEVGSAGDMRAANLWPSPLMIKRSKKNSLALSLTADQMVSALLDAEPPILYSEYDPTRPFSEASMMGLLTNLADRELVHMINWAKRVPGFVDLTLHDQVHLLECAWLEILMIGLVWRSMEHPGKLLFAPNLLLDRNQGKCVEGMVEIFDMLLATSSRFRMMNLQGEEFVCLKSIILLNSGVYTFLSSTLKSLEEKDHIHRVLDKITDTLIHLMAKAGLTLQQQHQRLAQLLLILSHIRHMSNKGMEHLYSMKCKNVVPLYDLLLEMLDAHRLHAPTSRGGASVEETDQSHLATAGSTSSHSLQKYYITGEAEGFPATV
Experiment: Anti-oestrogenic action in MVLN cells (inhibition of estradiol-induced luciferase, transactivation antagonism)
Assay type: cell-based
Conditions: inhibition of estradiol-induced luciferase activity, read-out: Anti-oestrogenic action in vitro: MVLN transactivation antagonism IC50
Outline: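 MCF7-derived MVLN cells carrying an ER-driven luciferase reporter; test compounds applied with estradiol, and anti-oestrogenic action scored as inhibition of the estradiol-induced luciferase signal.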

SMILES	pIC50
O=S(=O)(CCCN(CCCO)CCCCCCC1=C(c2cccc(O)c2)CCCc2cc(O)ccc21)CCCC(F)(F)C(F)(F)F [Example 92, 8-(3-Hydroxyphenyl)-9-{6-[(3-hydroxypropyl){3-[(4,4,5,5,5-mpentafluoropentyl)sulphonyl]propyl}amino]hexyl}-6,7-dihydro-5H-benzo[7]annulen-3-ol]	9.00
O=S(=O)(CCCN(CCO)CCCCCCC1=C(c2ccccc2)CCCc2cc(O)ccc21)CCCC(F)(F)C(F)(F)F [Example 71, 9-{6-[(2-Hydroxyethyl){3-[(4,4,5,5,5-pentafluoropentyl)sulphonyl]propyl}amino]hexyl}-8-phenyl-6,7-dihydro-5H-benzo[7]annulen-3-ol]	7.89
CN(CCCCCC1=C(c2cccc(O)c2)CCCc2cc(O)ccc21)CCCCC[S+]([O-])CCCC(F)(F)C(F)(F)F (racemic) [Example 8, 8-(3-Hydroxyphenyl)-9-[5-(methyl{5-[(RS)-(4,4,5,5,5-pentafluoropentyl)sulphinyl]pentyl}amino)pentyl]-6,7-dihydro-5H-benzo[7]annulen-3-ol]	8.10
[O-][S+](CCCN(CCCO)CCCCCCC1=C(c2cccc(O)c2)CCCc2cc(O)ccc21)CCC(F)(F)F (racemic) [Example 96, 8-(3-Hydroxyphenyl)-9-{6-[(3-hydroxypropyl){3-[(RS)-(3,3,3-trifluoropropyl)sulphinyl]propyl}amino]hexyl}-6,7-dihydro-5H-benzo[7]annulen-3-ol]	8.30
COCCN(CCCCCCC1=C(c2cccc(O)c2)CCCc2cc(O)ccc21)CCCS(=O)(=O)CCCC(F)(F)C(F)(F)F [Example 106, 8-(3-Hydroxyphenyl)-9-{6-[(2-methoxyethyl){3-[(4,4,5,5,5-pentafluoropentyl)sulphonyl]propyl}amino]hexyl}-6,7-dihydro-5H-benzo[7]annulen-3-ol]	9.00
CN(CCCCCCC1=C(c2ccc(F)c(O)c2)CCCc2cc(O)ccc21)CCCC[S+]([O-])CCCC(F)(F)C(F)(F)F (racemic) [Example 30, 8-(4-Fluoro-3-hydroxyphenyl)-9-[6-(methyl{4-[(RS)-(4,4,5,5,5-pentafluoropentyl)sulphinyl]butyl}amino)hexyl]-6,7-dihydro-5H-benzo[7]annulen-3-ol]	8.70
CN(CCCCCCC1=C(c2ccc(F)c(O)c2)CCCc2cc(O)ccc21)CCCCCS(=O)(=O)CCCC(F)(F)C(F)(F)F [Example 33, 8-(4-Fluoro-3-hydroxyphenyl)-9-[6-(methyl{5-[(4,4,5,5,5-pentafluoropentyl)sulphonyl]pentyl}amino)hexyl]-6,7-dihydro-5H-benzo[7]annulen-3-ol]	8.22
CCN(CCCCCCC1=C(c2ccccc2)CCCc2cc(O)ccc21)CCC[S+]([O-])CCCC(F)(F)C(F)(F)F (racemic) [Example 68, 9-[6-(Ethyl{3-[(RS)-(4,4,5,5,5-pentafluoropentyl)sulphinyl]propyl}amino)hexyl]-8-phenyl-6,7-dihydro-5H-benzo[7]annulen-3-ol]	8.30
CN(CCCCCC1=C(c2cccc(O)c2)CCCc2cc(O)ccc21)CCCS(=O)(=O)CCCC(F)(F)C(F)(F)F [Example 5, 8-(3-Hydroxyphenyl)-9-[5-(methyl{3-[(4,4,5,5,5-pentafluoropentyl)sulphonyl]propyl}amino)pentyl]-6,7-dihydro-5H-benzo[7]annulen-3-ol]	8.30
COCCN(CCCCCCC1=C(c2ccc(F)c(O)c2)CCCc2cc(O)ccc21)CCCS(=O)(=O)CCCC(F)(F)C(F)(F)F [Example 105, 8-(4-Fluoro-3-hydroxyphenyl)-9-{6-[(2-methoxyethyl){3-[(4,4,5,5,5-pentafluoropentyl)sulphonyl]propyl}amino]hexyl}-6,7-dihydro-5H-benzo[7]annulen-3-ol]	8.70
[O-][S+](CCCNCCCCCC1=C(c2ccccc2)CCCc2cc(O)ccc21)CCCC(F)(F)C(F)(F)F (racemic) [Example 50, 9-[5-({3-[(RS)-(4,4,5,5,5-Pentafluoropentyl)sulphinyl]propyl}amino)pentyl]-8-phenyl-6,7-dihydro-5H-benzo[7]annulen-3-ol]	8.15
CC(C)(O)CN(CCCCCCC1=C(c2cccc(O)c2)CCCc2cc(O)ccc21)CCCS(=O)(=O)CCCC(F)(F)C(F)(F)F [Example 93, 9-{6-[(2-Hydroxy-2-methylpropyl){3-[(4,4,5,5,5-pentafluoropentyl)sulphonyl]propyl}amino]hexyl}-8-(3-hydroxyphenyl)-6,7-dihydro-5H-benzo[7]annulen-3-ol]	9.00
CCN(CCCCCCC1=C(c2cccc(O)c2)CCCc2cc(O)ccc21)CCC[S+]([O-])CCC(F)(F)F (racemic) [Example 94, 9-[6-(Ethyl{3-[(RS)-(3,3,3-trifluoropropyl)sulphinyl]propyl}amino)hexyl]-8-(3-hydroxyphenyl)-6,7-dihydro-5H-benzo[7]annulen-3-ol]	8.05
CN(CCCCCCC1=C(c2ccc(F)c(O)c2)CCCc2cc(O)ccc21)CCCCS(=O)(=O)CCCC(F)(F)C(F)(F)F [Example 31, 8-(4-Fluoro-3-hydroxyphenyl)-9-[6-(methyl{4-[(4,4,5,5,5-pentafluoropentyl)sulphonyl]butyl}amino)hexyl]-6,7-dihydro-5H-benzo[7]annulen-3-ol]	8.52
CN(CCCCCCC1=C(c2ccc(F)c(O)c2)CCCc2cc(O)c(F)cc21)CCC[S+]([O-])CCC(F)(F)F (racemic) [Example 125, 2-Fluoro-8-(4-fluoro-3-hydroxyphenyl)-9-[6-(methyl{3-[(RS)-(3,3,3-trifluoropropyl)sulphinyl]propyl}amino)hexyl]-6,7-dihydro-5H-benzo[7]annulen-3-ol]	7.80
CCN(CCCCCCC1=C(c2ccccc2)CCCc2cc(O)ccc21)CCCS(=O)(=O)CCCC(F)(F)C(F)(F)F [Example 69, 9-[6-(Ethyl{3-[(4,4,5,5,5-pentafluoropentyl)sulphonyl]propyl}amino)hexyl]-8-phenyl-6,7-dihydro-5H-benzo[7]annulen-3-ol]	8.22
CN(CCCCCC1=C(c2ccc(F)c(O)c2)CCCc2cc(O)ccc21)CCCCS(=O)(=O)CCCC(F)(F)C(F)(F)F [Example 25, 8-(4-Fluoro-3-hydroxyphenyl)-9-[5-(methyl{4-[(4,4,5,5,5-pentafluoropentyl)sulphonyl]butyl}amino)pentyl]-6,7-dihydro-5H-benzo[7]annulen-3-ol]	7.62
CN(CCCCCC1=C(c2ccccc2)CCCc2cc(O)ccc21)CCCCS(=O)(=O)CCC(F)(F)F [Example 111, 9-[5-(Methyl{4-[(3,3,3-trifluoropropyl)sulphonyl]butyl}amino)pentyl]-8-phenyl-6,7-dihydro-5H-benzo[7]annulen-3-ol]	6.60
CN(CCCCCCS(=O)(=O)CCCC(F)(F)C(F)(F)F)CCCCCC1=C(c2cccc(O)c2)CCCc2cc(O)ccc21 [Example 11, 8-(3-Hydroxyphenyl)-9-[5-(methyl{6-[(4,4,5,5,5-pentafluoropentyl)sulphonyl]hexyl}amino)pentyl]-6,7-dihydro-5H-benzo[7]annulen-3-ol]	8.40
CC(C)(O)CN(CCCCCCC1=C(c2cccc(O)c2)CCCc2cc(O)ccc21)CCCS(=O)(=O)CCC(F)(F)F [Example 100, 9-{6-[(2-Hydroxy-2-methylpropyl){3-[(3,3,3-trifluoropropyl)sulphonyl]propyl}amino]hexyl}-8-(3-hydroxyphenyl)-6,7-dihydro-5H-benzo[7]annulen-3-ol]	8.52
